Measurements from patent US20230348852A1, “METHODS AND COMPOSITIONS FOR OCULAR CELL THERAPY” (NOVARTIS AG, priority 2020, published 2023).

Experiments:
human limbal stem cells = test: Human limbal stem cell population expansion and measurement (expansion factor, p63alpha-positive cells); assay type: cell-based; conditions: 10 micromolar in XVIVO15 medium, two passages; for Expansion factor: ratio of expanded population to seeded cells; for Percentage of p63a-positive cells: share of Sytox Orange-positive nuclei expressing p63alpha
Experimental: Cells were cultured at 37° C. in 5% CO2.
For each compound, two sets of cultures were generated. A first set of cultures was fixed in 4% PFA for 20 minutes at room temperature after cells isolated from the cornea had attached to the cell culture dish (typically 24 h after cell plating). A second set of cultures was fixed in 4% PFA for 20 minutes at room temperature after being cultured for two passages. Cells were passaged when they reached 90-100% confluence.
In order to observe that the expanded cell population expressed p63alpha, this was measured by immunohistochemistry as follows. The fixed cell cultures were permeabilized and blocked in a blocking solution of 0.3% Triton X-100 (Sigma-Aldrich) and 3% donkey serum in PBS for 30 minutes. Cells were then labeled with primary antibody in the blocking solution for 12 hours at 4° C. Primary antibody used was p63alpha from Cell Signalling. Samples were washed in PBS three times and donkey-raised secondary antibody Alexa Fluor 488 (Molecular Probes) at 1:500 dilution were applied for 30 minutes at room temperature. Cell nuclei were then labeled in a solution of 0.5 micromolar of Sytox Orange (ThermoFisher) in PBS for 5 minutes at room temperature.
To evaluate the percentage of p63alpha-positive cells, the number of cells labeled by the anti-p63alpha antibody was counted and the total number of cells was determined by counting the number of nuclei stained by Sytox Orange. The proportion of p63alpha-positive cells was then determined by calculating the percentage of Sytox-orange-positive nuclei that also expressed p63alpha.
To evaluate cell expansion ratios, nuclei were counted using a Zeiss LSM 880 confocal microscope. The expansion factor was then determined by calculating the ratio of the expanded population of cells to population of seeded cells.

B2M = test: sgRNA screening for B2M knockout in LSCs (nucleofection, FACS); assay type: cell-based, human; conditions: Cas9 protein SEQ ID NO: 106, LSCs at passage 3, FACS after around 3 days
Experimental: Cells were cultured under these conditions for 24-48 hours at 37° C. in 5% CO2.
LSCs were nuclofected with selected gRNAs (Table 6) followed by FACS analysis / MACS separation.
After scraping the cells, the reaction was stopped by using cell culture medium containing 10% Serum and transferred to a falcon tube. After counting cells using Vi-cell 300′000 cells were prepared per reaction by transferring 300′000 cells in single tubes and centrifuged at 1000 rpm for 5 min. The supernatant was aspirated using manually pipetting to avoid cell loss and the cells were resuspended in the Stem cell nucleofector solution II (Lonza, Cat #VPH-5022). Resuspend cells in nucleofector solution immediately before adding the Cas9 RNP:sgRNA mixture. To obtain the nucleofection mixture, 5 µg high concentrated (≥5 µg/µl) Cas9 protein of SEQ ID NO: 106 (volume = 0.78 µl) was mixed with 19.5 µg sgRNA of Table 6 (volume = 12.2 µl) and incubated for 20 min at room temperature. […] The Cas9 protein-guideRNA complex was added to the cell suspension and transferred to the electroporation cuvette immediately. Cells were transfected using the nucelofector device (Lonza, Amaxa Nucleofector II) and program A023. After nucleofection cells were transferred from cuvette to one well of a 24 well synthemax coated plate containing pre-warmed LSC medium including 3 µM LATS compound and 10 µM Rock inhibitor Y-27632 (Nature 1997, vol. 389, pp. 990-994). Incubate LSCs in a 5% CO2 incubator for around 3 days until cells are 90% confluent.
LSCs were treated with TryLE®Express Enzym (ThermoFisher, Cat #12605010) for 15 minutes in 5% CO2 at 37° C. After scraping the cells, the reaction was stopped by using cell culture medium containing 10% Serum and transferred to a falcon tube for a centrifugation step (1000 rpm, 5 minutes). After aspirating the medium cells were resuspended in 200 µl FACS buffer (PBS/10%FBS).
(§1) To analyze the expression of B2M and HLA-ABC, 5 µl APC mouse anti-human β2-microglobulin antibody (Biolegend, Cat#316312) and 20 µl PE mouse anti-human HLA-ABC antibody (BD Bioscience, Cat # 560168) were added to the cell suspension and incubated for 30 minutes on ice.
Cells were washed 3 times after antibody labelling with FACS buffer and resuspended in 200 µl in FACS buffer (depending on the cell number).
FACS data were analyzed using BD FACSDiva software and FlowJo software.

human B2M = test: CRISPR/Cas9-mediated deletion of B2M in HEK293 (lipofection, FACS); assay type: cell-based; conditions: lipofection of tracrRNA, gRNA and Cas9 mRNA; FACS after 72 h
Experimental: One day before transfection, 500′000 HEK293cells (ATCC, Manassas, VA) were plated in a 35 mm dish and grown in DMEM/10%FBS. The following day, cells were transfected with a mixture of tracrRNA-gRNA-Cas9 mRNA. A stock of 10 micromolar was prepared resuspending 20 nanomoles of gRNA and 20 nanomoles tracrRNA in 2000 microlitre 10 millimolar Tris buffer pH7.4 each.
The mixture was added drop wise to the culture dish in 2.5 ml DMEM/10%FBS medium. The transfection reagent alone represented the transfection negative control.
After 6 h incubation in 5% CO2 at 37° C. medium was replaced with fresh DMEM/10%FBS medium. After 72 h in a 5% CO2 incubator cells were prepared for FACS analysis. FACS analysis: HEK293 cells were treated with Accutase (ThermoFisher, Cat # A1110501) for 20 minutes in 5% CO2 at 37° C. The reaction was stopped by using cell culture medium containing 10% Serum and transferred to a falcon tube for a centrifugation step (1000 rpm, 5 minutes). After aspirating the medium cells were resuspended in 200 microlitre FACS buffer (PBS/10%FBS).
as §1, with “microlitre” for “µl”, “Cat #316312)” for “Cat#316312)”, “ice. Cells were washed 3 times after antibody labelling with FACS buffer and resuspended in 500 microlitre in FACS buffer.” for “ice.”
Each sample was transferred to one well of a round bottom 96 well plate and analyzed on a BD LSRFortessa X-20 device. FACS data were analyzed using BD FACSDiva software.

Molecule	Expansion factor (human limbal stem cells)	Percentage of p63a-positive cells (human limbal stem cells) [%]	B2M knockout efficiency in LSCs after nucleofection (B2M) [%]	B2M knockout efficiency in HEK293 (human B2M) [%]
CC(C)(Nc1nc(-c2ccncc2Cl)nc2cnccc12)C(F)(F)F [2-(3-chloropyridin-4-yl)-N-(1,1,1-trifluoro-2-methylpropan-2-yl)pyrido[3,4-d]pyrimidin-4-amine]	961	87		
FC(F)(F)C1CN(c2nc(-c3ccncc3)nc3cnccc23)CCN1 (stereo not drawn) [2-(pyridin-4-yl)-4-(3-(trifluoromethyl)piperazin-1-yl)pyrido[3,4-d]pyrimidine]	1051	90		
FC(F)(F)C1(Nc2nc(-c3ccncc3)nc3cnccc23)CCC1 [2-(pyridin-4-yl)-N-[1-(trifluoromethyl)cyclobutyl]pyrido[3,4-d]pyrimidin-4-amine]	1712	95		
CC(C)(CO)Nc1nc(-c2ccncc2)nc2cnccc12 [2-methyl-2-{[2-(pyridin-4-yl)pyrido[3,4-d]pyrimidin-4-yl]amino}propan-1-ol]	1160	89		
FC(F)(F)C1(Nc2nc(-c3ccncc3)cc3cnccc23)CC1 [3-(pyridin-4-yl)-N-(1-(trifluoromethyl)cyclopropyl)-2,6-naphthyridin-1-amine]	1241	95		
O[C@H]1CCC[C@@H]1Nc1nc(-c2ccncc2)nc2cnccc12 [(1S,2S)-2-{[2-(pyridin-4-yl)pyrido[3,4-d]pyrimidin-4-yl]amino}cyclopentan-1-ol]	39	6		
CC(C)(C)Nc1cc(-c2ccncc2)nc2cnccc12 [Example 2, N-(tert-butyl)-2-(pyridin-4-yl)-1,7-naphthyridin-4-amine]	1717	93		
CC1(Nc2cc(-c3ccncc3)cc3cnccc23)CC1 [N-(1-methylcyclopropyl)-7-(pyridin-4-yl)isoquinolin-5-amine]	681	80		
CC1CCCC1Nc1nc(-c2ccncc2)nc2cnccc12 (stereo not drawn) [N-(2-methylcyclopentyl)-2-(pyridin-4-yl)pyrido[3,4-d]pyrimidin-4-amine]	976	86		
CC(C)Nc1nc(-c2ccncc2)nc2cnccc12 [N-(propan-2-yl)-2-(pyridin-4-yl)pyrido[3,4-d]pyrimidin-4-amine]	1275	93		
c1cc(-c2nc(NC3CCCC3)c3ccncc3n2)ccn1 [N-cyclopentyl-2-(pyridin-4-yl)pyrido[3,4-d]pyrimidin-4-amine]	1048	87		
CCCNc1nc(-c2c[nH]nc2C(F)(F)F)nc2cnccc12 [N-propyl-2-(3-(trifluoromethyl)-1H-pyrazol-4-yl)pyrido[3,4-d]pyrimidin-4-amine]	991	86		
CCCNc1nc(-c2ccncc2)nc2cnccc12 [N-propyl-2-(pyridin-4-yl)pyrido[3,4-d]pyrimidin-4-amine]	1423	93		
10-HEYJA000007: gRNA targeting human B2M; targeting domain SEQ ID NO: 117; sgRNA SEQ ID NO: 168 (nucleic acid, listed as RNA, chemistry not given here) guide: AGUCACAUGGUUCACACGGCGUUUUAGAGCUAGAAAUAGCAAGUUAAAAUAAGGCUAGUCCGUUAUCAACUUGAAAAAGUGGCACCGAGUCGGUGCUUUU			1	13
5-CR004366: gRNA targeting human B2M; targeting domain SEQ ID NO: 112; sgRNA SEQ ID NO: 163; from Dharmacon (nucleic acid, listed as RNA, chemistry not given here, gRNA targeting human B2M; from Dharmacon) guide: CUGAAUCUUUGGAGUACCUGGUUUUAGAGCUAGAAAUAGCAAGUUAAAAUAAGGCUAGUCCGUUAUCAACUUGAAAAAGUGGCACCGAGUCGGUGCUUUU			2	33
11-HEYJA000008: gRNA targeting human B2M; targeting domain SEQ ID NO: 118; sgRNA SEQ ID NO: 169 (nucleic acid, listed as RNA, chemistry not given here) guide: CCACCUCUUGAUGGGGCUAGGUUUUAGAGCUAGAAAUAGCAAGUUAAAAUAAGGCUAGUCCGUUAUCAACUUGAAAAAGUGGCACCGAGUCGGUGCUUUU			1	3
3-CR004366: gRNA targeting human B2M; targeting domain SEQ ID NO: 110; sgRNA SEQ ID NO: 161; from Dharmacon (nucleic acid, listed as RNA, chemistry not given here, gRNA targeting human B2M; from Dharmacon) guide: AAGUCAACUUCAAUGUCGGAGUUUUAGAGCUAGAAAUAGCAAGUUAAAAUAAGGCUAGUCCGUUAUCAACUUGAAAAAGUGGCACCGAGUCGGUGCUUUU			2	12
7-HEYJA000003: gRNA targeting human B2M; targeting domain SEQ ID NO: 114; sgRNA SEQ ID NO: 165 (nucleic acid, listed as RNA, chemistry not given here) guide: CUCGCGCUACUCUCUCUUUCGUUUUAGAGCUAGAAAUAGCAAGUUAAAAUAAGGCUAGUCCGUUAUCAACUUGAAAAAGUGGCACCGAGUCGGUGCUUUU			8	37
CR006979: gRNA targeting human B2M; targeting domain SEQ ID NO: 140; sgRNA SEQ ID NO: 177 (nucleic acid, listed as RNA, chemistry not given here) guide: UCCUGAAUUGCUAUGUGUCUGUUUUAGAGCUAGAAAUAGCAAGUUAAAAUAAGGCUAGUCCGUUAUCAACUUGAAAAAGUGGCACCGAGUCGGUGCUUUU			2	
2-CR004366: gRNA targeting human B2M; targeting domain SEQ ID NO: 109; sgRNA SEQ ID NO: 160; from Dharmacon (nucleic acid, listed as RNA, chemistry not given here, gRNA targeting human B2M; from Dharmacon) guide: CGUGAGUAAACCUGAAUCUUGUUUUAGAGCUAGAAAUAGCAAGUUAAAAUAAGGCUAGUCCGUUAUCAACUUGAAAAAGUGGCACCGAGUCGGUGCUUUU			2	33
